pIC50: −log10 of the molar value.
Experiments:
[1] = system: Hsp90 (SKBr3 lysate); assay: Hsp90 binding assay (fluorescence polarization, cy3B-GM displacement), human cancer cell lysate; conditions: lysate not given
Method: (§1) For the binding studies, fluorescence polarization (FP) assays w-re performed similarly as was previously reported [Du et al. (2007) “High-throughput screening fluorescence polarization assay for tumor-specific Hsp90” J. Biomol. Screen 12:915-924]. Briefly, FP measurements were performed on an Analyst GT instrument (Molecular Devices, Sunnyvale, Calif.). Measurements were taken in black 96-well microtiter plates (Corning #3650) where both the excitation and the emission occurred from the top of the well. A stock of 10 μM cy3B-GM was prepared in DMSO and diluted with HFB buffer (20 mM Hepes (K), pH 7.3, 50 mM KCl, 2 mM DTT, 5 mM MgCl2, 20 mM Na2MoO4, and 0.01% NP40 with 0.1 mg/mL BGG). The test compounds were dissolved in DMSO and added at several concentrations to the HFB assay buffer containing both 6 nM cy3B-GM and transgenic mouse brain lysate (6 μg JNPL3 lysate) or human cancer cell lysate (3 μg SKBr3 lysate) in a final volume of 100 μL. Drugs were added to triplicate wells. Free cy3B-GM (6 nM cy3B-GM), bound cy3B-GM (6 nM cy3B-GM+lysate, as indicated above) and buffer only containing wells (background) were included as controls in each plate. Plates were incubated on a shake at 4° C., and polarization values measured at 24 h. Percentage inhibition was calculated as follows: (% Control)=100−((mPc−mPf)/(mPb−mPf))×100, where mPc is the recorded mP from compound wells, mPf is the average recorded mP from cy3B-GM-only wells, and mPb is the average recorded mP from wells containing both cy3B-GM and lysate, and plotted against values of competitor concentrations. The inhibitor concentration at which 50% of bound cy3B-GM was displaced was obtained by fitting the data using a nonlinear regression analysis as implemented in Prism 4.0 (GraphPad Software).

[2] = system: Hsp90; assay: as above; conditions: fluorescence polarization, cy3B-GM displacement; the table does not say which lysate (SKBr3 or JNPL3)
Method: as §1

[3] = molecular target: T1, hERG (Homo sapiens, UniProt Q12809); assay: hERG fluorescence polarization assay (Predictor hERG kit); format: binding; conditions: Predictor hERG fluorescence polarization, displacement of tracer red, read after 4 hrs; read-out: hERG assay
T1 construct: purchased Invitrogen PV5365
T1 sequence (Q12809 whole entry): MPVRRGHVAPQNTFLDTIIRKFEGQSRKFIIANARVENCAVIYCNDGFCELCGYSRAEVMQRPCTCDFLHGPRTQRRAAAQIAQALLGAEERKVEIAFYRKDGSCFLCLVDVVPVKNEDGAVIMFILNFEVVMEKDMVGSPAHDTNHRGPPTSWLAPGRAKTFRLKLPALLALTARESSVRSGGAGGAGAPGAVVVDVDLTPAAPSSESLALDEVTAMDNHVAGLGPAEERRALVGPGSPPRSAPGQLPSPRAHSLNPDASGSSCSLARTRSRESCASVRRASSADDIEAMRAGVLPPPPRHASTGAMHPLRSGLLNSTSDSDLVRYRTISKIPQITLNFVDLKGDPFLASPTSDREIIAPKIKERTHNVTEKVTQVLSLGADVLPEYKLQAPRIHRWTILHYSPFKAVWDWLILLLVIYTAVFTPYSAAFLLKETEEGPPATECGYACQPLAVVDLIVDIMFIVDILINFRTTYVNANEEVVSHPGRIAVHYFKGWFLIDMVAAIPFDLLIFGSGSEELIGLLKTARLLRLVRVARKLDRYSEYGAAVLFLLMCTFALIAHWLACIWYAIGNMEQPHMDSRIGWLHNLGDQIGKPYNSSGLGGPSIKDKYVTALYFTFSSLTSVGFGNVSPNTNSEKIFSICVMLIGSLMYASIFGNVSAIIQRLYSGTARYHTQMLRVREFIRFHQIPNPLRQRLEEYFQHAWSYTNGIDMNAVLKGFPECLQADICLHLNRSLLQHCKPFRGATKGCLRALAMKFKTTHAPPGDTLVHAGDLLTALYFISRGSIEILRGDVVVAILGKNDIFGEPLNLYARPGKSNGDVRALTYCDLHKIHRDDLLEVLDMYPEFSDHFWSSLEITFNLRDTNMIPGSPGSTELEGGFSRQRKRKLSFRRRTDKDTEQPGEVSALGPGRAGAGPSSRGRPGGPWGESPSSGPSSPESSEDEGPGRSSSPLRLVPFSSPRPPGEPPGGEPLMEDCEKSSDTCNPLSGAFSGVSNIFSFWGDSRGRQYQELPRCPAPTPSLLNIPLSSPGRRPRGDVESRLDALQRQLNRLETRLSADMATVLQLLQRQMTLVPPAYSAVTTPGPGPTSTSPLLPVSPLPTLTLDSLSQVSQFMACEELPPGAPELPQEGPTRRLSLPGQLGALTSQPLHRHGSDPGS
Method: hERG Fluorescence Polarization Assay:
Following the manufacturer's protocol, the hERG assay was performed using Predictor hERG Fluorescence Polarization Assay kit (catalog no. PV5365) from Invitrogen. Briefly, FP measurements were performed on an Analyst GT instrument (Molecular Devices, Sunnyvale, Calif.). Measurements were taken in black 384-well plates (Corning #3677), where both the excitation and the emission occurred from the top of the well. The test compounds were dissolved in DMSO and added at several concentrations to the Predictor hERG FP assay buffer containing 4 nM Predictor hERG tracer red and 10 μL of Predictor hERG membrane in a final volume of 20 μL. Drugs were added to triplicate wells. E-4031 as positive control was included in each plate. Plates were then kept on a shaker at room temperature and polarization values were measured after 4 hrs. The inhibition concentration at which 50% of tracer red gets displaced was obtained by fitting the data using a nonlinear regression analysis as implemented in Prism 5.0 (GraphPad Software).

Row | Structure (SMILES) | pIC50 [2] | Hsp90 binding affinity (in words, referring to Table 12) [1] | pIC50 [3]
1 | C#Cc1cc2c(cc1Sc1nc3c(N)ncnc3n1CCCNC(=O)C1CC1)OCO2 [Compound 1B-45, Cyclopropanecarboxylic acid {3-(6-amino-8-(6-ethynyl-benzo[1,3]dioxol-5-ylsulfanyl)-purin-9-yl]-propyl}-amide] | 7.43 | high level of binding affinity | < 4.00
2 | CC(C)(C)C(=O)NCCCn1c(Cc2cc3c(cc2I)OCO3)nc2c(N)nc(F)nc21 [Compound 4A-43, N-{3-[6-Amino-2-fluoro-8-(6-iodo-benzo[1,3]dioxol-5-ylmethyl)-purin-9-yl]-propyl}-2,2-dimethyl-propionamide] | 7.48 | high level of binding affinity | < 4.00
3 | Nc1nc(F)nc2c1nc(Cc1cc3c(cc1I)OCO3)n2CCCNS(=O)(=O)C1CC1 [Compound 4A-28, N-(3-(6-amino-2-fluoro-8-((6-iodobenzo[d][1,3]dioxol-5-yl)methyl)-9H-purin-9-yl)propyl)cyclopropane-sulfonamide] | 7.62 | high level of binding affinity | < 4.00
4 | CC(C)(C)[S+]([O-])NCCCn1c(Cc2cc3c(cc2I)OCO3)nc2c(N)nc(F)nc21 (centres unmarked) [Compound 4A-26, N-(3-(6-amino-2-fluoro-8-((6-iodobenzo[d][1,3]dioxol-5-yl)methyl)-9H-purin-9-yl)propyl)-2-methylpropane-2-sulfinamide] | 7.58 | high level of binding affinity | < 4.00
5 | C#Cc1cc2c(cc1Sc1nc3c(N)ncnc3n1CCCNS(=O)(=O)C1CC1)OCO2 [Compound 1B-28, Cyclopropanesulfonic acid {3-[6-amino-8-(6-ethynyl-benzo[1,3]dioxol-5-ylsulfanyl)-purin-9-yl]-propyl}-amide] | 7.28 | high level of binding affinity | < 4.00
6 | Nc1nc(F)nc2c1nc(Cc1cc3c(cc1I)OCO3)n2CCCNC(=O)C1CC1 [Compound 4A-45, Cyclopropanecarboxylic acid {3-[6-amino-2-fluoro-8-(6-iodo-benzo[1,3]dioxol-5-ylmethyl)-purin-9-yl]-propyl}-amide] | 7.70 | high level of binding affinity | < 4.00
7 | CN(C)c1cc2c(cc1Sc1nc3c(N)ncnc3n1CCCNC(=O)C1CC1)OCO2 [Compound 1G-45, Cyclopropanecarboxylic acid {3-[6-amino-8-(6-dimethylamino-benzo[1,3]dioxol-5-ylsulfanyl)-purin-9-yl]-propyl}-amide] | 7.82 | high level of binding affinity | 4.12

More lines, main results first:

Row | pIC50 [2] | Structure (SMILES) | Hsp90 binding affinity (in words, referring to Table 12) [1] | pIC50 [3]
8 | 7.55 | C#Cc1cc2c(cc1Sc1nc3c(N)ncnc3n1CCCNC(=O)C(C)(C)C)OCO2 [Compound 1B-43, N-{3-[6-Amino-8-(6-ethynyl-benzo[1,3]dioxol-5-ylsulfanyl)-purin-9-yl]-propyl}-2,2-dimethyl-propionamide] | high level of binding affinity | < 4.00
9 | 8.01 | Nc1ncnc2c1nc(Sc1cc3c(cc1I)OCO3)n2CCCNC(=O)C1CC1 [Compound 1A-45, N-(3-(6-amino-8-((6-iodobenzo[d][1,3]dioxol-5-yl)thio)-9H-purin-9-yl)propyl)cyclopropane carboxamide] | – | < 4.00
10 | 7.66 | CC(C)(O)C(=O)NCCCn1c(Sc2cc3c(cc2I)OCO3)nc2c(N)ncnc21 [Compound 1A-48, N-(3-(6-Amino-8-((6-iodobenzo[d][1,3]dioxol-5-yl)thio)-9H-purin-9-yl)propyl)-2-hydroxy-2-methylpropanamide] | – | 4.92
11 | 7.69 | CC(C)NS(=O)(=O)CCCn1c(Sc2cc3c(cc2I)OCO3)nc2c(N)ncnc21 [Compound 1A-15, 3-[6-Amino-8-(6-iodo-benzo[1,3]dioxol-5-ylsulfanyl)-purin-9-yl]-propane-1-sulfonic acid isopropylamide] | high level of binding affinity | < 4.00
12 | 7.96 | CN(C)c1cc2c(cc1Sc1nc3c(N)ncnc3n1CCCNC(=O)C(C)(C)C)OCO2 [Compound 1G-43, N-{3-[6-Amino-8-(6-dimethylamino-benzo[1,3]dioxol-5-ylsulfanyl)-purin-9-yl]-propyl}-2,2-dimethyl-propionamide] | high level of binding affinity | < 4.00
13 | 7.92 | CC(C)(C)[S+]([O-])NCCCn1c(Sc2cc3c(cc2I)OCO3)nc2c(N)ncnc21 (centres unmarked) [Compound 1A-26, 2-Methyl-propane-2-sulfinic acid {3-[6-amino-8-(6-iodo-benzo[1,3]dioxol-5-ylsulfanyl)-purin-9-yl]-propyl}-amide] | – | < 4.00
14 | 7.33 | CC(C)S(=O)(=O)NCCCn1c(Sc2cc3c(cc2I)OCO3)nc2c(N)ncnc21 [Compound 1A-22, Propane-2-sulfonic acid {3-[6-amino-8-(6-iodo-benzo[1,3]dioxol-5-ylsulfanyl)-purin-9-yl]-propyl}-amide] | high level of binding affinity | < 4.00
15 | 7.96 | CC(C)(C)C(=O)NCCCn1c(Sc2cc3c(cc2I)OCO3)nc2c(N)ncnc21 [Compound 1A-43, N-(3-(6-amino-8-((6-iodobenzo[d][1,3]dioxol-5-yl)thio)-9H-purin-9-yl)propyl)pivalamide] | – | < 4.00

— patent US9926321B2, “Hsp90 inhibitors” (Sloan-Kettering Institute for Cancer Research, priority 2011, dated 2018)
